Measurements reported in paper doi:10.1101/2024.08.19.608619, “Discovery of potent SARS-CoV-2 nsp3 macrodomain inhibitors uncovers lack of translation to cellular antiviral response” (bioRxiv, 2024).
Like-named read-outs stand apart in the source and are kept apart here.

Columns and labels:
Test in all cases: biochemical
Design in all cases: In vitro kinase panel profiling, per cent remaining kinase activity at 10 uM
ALK(h) = ALK(h) (Homo sapiens, UniProt Q9UM73); conditions: atp_concentration=200, read-out: % of control remaining
Text: (§1) We derisk potential for off-target activity by profiling the compound in a CEREP panel, a standard secondary pharmacology assessment, as well as a kinase panel to derisk a potential hinge-binding motif in our leads, and a PARP panel to derisk activity against human […]. Reassuringly, the compounds are selective, with the only off-targets being moderate human CHRM2 and KOR receptors activity associated with ASAP-0011198.

SRPK1(h) = SRPK1(h) (Homo sapiens, UniProt Q96SB4); conditions: atp_concentration=10, read-out: % of control remaining
Text: as §1

CHK1(h) = target: T1, CHK1(h) (Homo sapiens, UniProt O14757); conditions: atp_concentration=90, read-out: % of control remaining
T1 construct: gene CHEK1
T1 sequence (O14757 1-476): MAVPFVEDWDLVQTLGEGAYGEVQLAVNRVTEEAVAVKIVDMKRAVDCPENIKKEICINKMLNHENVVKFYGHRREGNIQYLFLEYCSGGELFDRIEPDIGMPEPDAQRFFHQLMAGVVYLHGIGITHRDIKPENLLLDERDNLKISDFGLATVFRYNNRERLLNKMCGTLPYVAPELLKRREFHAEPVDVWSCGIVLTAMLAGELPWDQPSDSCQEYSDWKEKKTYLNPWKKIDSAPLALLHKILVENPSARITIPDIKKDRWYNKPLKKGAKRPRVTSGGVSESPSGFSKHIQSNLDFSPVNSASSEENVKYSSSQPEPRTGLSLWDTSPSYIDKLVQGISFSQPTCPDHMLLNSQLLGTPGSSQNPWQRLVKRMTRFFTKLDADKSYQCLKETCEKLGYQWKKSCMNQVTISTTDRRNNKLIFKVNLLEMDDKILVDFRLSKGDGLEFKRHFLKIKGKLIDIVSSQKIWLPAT
Text: as §1

EphB4(h) = target: T2, EphB4(h) (Homo sapiens, UniProt P54760); conditions: atp_concentration=10, read-out: % of control remaining
T2 sequence (P54760 1-987): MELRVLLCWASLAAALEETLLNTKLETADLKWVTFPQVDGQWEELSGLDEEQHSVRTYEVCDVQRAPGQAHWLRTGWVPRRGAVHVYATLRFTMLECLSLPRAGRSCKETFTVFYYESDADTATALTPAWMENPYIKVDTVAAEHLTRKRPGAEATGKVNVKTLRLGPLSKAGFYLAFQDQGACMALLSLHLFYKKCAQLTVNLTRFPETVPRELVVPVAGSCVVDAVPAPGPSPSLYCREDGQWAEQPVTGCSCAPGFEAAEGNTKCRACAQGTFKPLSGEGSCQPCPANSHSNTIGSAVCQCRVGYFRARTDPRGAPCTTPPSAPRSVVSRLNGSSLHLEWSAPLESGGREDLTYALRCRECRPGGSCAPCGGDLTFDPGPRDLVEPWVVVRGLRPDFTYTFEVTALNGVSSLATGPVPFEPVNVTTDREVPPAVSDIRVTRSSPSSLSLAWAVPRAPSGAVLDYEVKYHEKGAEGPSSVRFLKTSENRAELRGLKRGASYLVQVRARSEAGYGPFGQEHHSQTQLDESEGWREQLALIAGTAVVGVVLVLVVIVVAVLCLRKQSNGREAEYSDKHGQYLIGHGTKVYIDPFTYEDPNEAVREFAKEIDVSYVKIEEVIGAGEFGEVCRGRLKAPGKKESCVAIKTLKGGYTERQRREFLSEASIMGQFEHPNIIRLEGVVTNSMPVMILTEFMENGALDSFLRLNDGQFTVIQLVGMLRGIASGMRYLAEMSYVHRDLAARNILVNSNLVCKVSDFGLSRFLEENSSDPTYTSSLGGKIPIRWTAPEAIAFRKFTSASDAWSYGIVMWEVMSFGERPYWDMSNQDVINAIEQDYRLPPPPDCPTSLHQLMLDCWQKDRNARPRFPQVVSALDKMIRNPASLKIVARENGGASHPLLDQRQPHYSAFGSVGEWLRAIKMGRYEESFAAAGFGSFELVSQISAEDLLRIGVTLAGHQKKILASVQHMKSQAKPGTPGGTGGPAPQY
Text: as §1

NEK2(h) = target: T3, NEK2(h) (Homo sapiens, UniProt P51955); conditions: atp_concentration=120, read-out: % of control remaining
T3 sequence (P51955 1-445): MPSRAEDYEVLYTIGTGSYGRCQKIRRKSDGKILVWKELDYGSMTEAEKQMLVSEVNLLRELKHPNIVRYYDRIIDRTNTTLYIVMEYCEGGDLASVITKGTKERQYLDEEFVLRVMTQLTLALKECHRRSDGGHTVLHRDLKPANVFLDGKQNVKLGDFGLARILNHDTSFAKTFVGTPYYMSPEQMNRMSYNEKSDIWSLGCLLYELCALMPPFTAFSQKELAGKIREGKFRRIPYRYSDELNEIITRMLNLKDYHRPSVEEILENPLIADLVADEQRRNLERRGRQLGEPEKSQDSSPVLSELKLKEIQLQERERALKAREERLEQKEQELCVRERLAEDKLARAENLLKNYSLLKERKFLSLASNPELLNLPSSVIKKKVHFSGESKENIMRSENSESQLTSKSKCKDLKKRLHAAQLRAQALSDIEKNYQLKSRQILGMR
Text: as §1

SRPK1(h), sequence (Q96SB4 whole entry): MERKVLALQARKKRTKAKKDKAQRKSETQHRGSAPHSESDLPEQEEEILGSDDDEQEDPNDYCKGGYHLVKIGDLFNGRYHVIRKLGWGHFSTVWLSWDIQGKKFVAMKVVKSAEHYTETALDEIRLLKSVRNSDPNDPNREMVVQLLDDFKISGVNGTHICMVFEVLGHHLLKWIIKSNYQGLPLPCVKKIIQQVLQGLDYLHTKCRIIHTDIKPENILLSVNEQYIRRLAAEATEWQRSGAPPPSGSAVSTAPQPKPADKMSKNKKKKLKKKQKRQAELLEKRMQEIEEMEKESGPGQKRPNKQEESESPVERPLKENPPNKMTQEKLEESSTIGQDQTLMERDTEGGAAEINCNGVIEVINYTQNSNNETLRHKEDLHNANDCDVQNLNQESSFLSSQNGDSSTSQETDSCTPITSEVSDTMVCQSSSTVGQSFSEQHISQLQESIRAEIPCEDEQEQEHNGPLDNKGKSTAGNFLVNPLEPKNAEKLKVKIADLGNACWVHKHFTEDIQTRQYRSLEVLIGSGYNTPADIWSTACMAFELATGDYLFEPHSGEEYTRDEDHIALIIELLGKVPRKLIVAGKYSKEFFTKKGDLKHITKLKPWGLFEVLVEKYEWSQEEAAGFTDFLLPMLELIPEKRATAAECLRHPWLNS
ALK(h), sequence (Q9UM73 whole entry): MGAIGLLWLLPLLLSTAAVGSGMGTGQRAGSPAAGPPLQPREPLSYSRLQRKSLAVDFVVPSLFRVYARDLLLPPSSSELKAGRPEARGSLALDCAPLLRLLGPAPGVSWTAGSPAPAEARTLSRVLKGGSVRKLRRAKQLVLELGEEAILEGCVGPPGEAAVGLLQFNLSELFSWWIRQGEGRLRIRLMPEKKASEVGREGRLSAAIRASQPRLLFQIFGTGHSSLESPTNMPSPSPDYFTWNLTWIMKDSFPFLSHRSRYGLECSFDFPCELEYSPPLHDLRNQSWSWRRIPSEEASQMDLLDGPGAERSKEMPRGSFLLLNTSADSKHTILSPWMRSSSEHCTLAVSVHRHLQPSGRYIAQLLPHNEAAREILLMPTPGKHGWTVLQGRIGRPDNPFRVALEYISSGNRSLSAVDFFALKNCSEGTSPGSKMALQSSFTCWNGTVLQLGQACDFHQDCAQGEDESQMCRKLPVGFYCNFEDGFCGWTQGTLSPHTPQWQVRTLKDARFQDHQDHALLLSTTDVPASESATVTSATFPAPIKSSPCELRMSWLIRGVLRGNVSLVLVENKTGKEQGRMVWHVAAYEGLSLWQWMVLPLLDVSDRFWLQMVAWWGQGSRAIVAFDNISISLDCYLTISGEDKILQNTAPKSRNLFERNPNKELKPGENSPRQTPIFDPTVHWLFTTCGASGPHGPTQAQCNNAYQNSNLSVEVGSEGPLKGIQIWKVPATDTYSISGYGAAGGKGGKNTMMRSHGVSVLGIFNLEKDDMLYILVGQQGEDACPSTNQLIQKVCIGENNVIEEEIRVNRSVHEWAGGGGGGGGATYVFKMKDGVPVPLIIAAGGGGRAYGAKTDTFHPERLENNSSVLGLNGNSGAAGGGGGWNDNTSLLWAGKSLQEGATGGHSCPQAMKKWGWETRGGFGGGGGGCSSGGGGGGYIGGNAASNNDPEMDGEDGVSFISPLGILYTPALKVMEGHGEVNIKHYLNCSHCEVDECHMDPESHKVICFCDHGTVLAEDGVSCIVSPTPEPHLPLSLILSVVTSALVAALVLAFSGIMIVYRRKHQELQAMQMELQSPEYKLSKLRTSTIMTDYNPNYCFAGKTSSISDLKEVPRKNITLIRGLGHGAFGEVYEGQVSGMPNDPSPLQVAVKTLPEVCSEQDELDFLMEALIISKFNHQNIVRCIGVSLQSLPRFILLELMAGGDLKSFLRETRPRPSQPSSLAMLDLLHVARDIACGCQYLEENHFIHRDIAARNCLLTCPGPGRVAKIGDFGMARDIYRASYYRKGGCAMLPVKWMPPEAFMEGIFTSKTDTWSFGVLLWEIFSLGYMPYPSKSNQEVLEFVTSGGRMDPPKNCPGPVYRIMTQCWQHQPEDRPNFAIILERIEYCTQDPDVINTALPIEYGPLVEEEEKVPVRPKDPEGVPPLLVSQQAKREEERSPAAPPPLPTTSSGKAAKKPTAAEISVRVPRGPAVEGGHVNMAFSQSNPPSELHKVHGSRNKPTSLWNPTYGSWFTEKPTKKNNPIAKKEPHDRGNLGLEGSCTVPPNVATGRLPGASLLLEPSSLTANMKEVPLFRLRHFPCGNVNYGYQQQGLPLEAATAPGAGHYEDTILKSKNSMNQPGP

CC(C)[C@H](Nc1ncnc2[nH]ccc12)c1ccc2c(c1)S(=O)(=O)CCC2 [ASAP-0008674]
remaining activity at 10 µM (ALK(h); batch_name=ASAP-0008674-002): 100% | remaining activity at 10 µM (SRPK1(h); batch_name=ASAP-0008674-002): 100% | remaining activity at 10 µM (CHK1(h); batch_name=ASAP-0008674-002): 110% | remaining activity at 10 µM (EphB4(h); batch_name=ASAP-0008674-002): 86% | remaining activity at 10 µM (NEK2(h); batch_name=ASAP-0008674-002): 109%

Cc1nn(C)cc1-c1cc2c(NC(c3ccc4c(c3)S(=O)(=O)CCC4)C(C)C)ncnc2[nH]1 (stereo not shown) [ASAP-0011446]
remaining activity at 10 µM (ALK(h); batch_name=ASAP-0011446-002): 99% | remaining activity at 10 µM (SRPK1(h); batch_name=ASAP-0011446-002): 104% | remaining activity at 10 µM (CHK1(h); batch_name=ASAP-0011446-002): 102% | remaining activity at 10 µM (EphB4(h); batch_name=ASAP-0011446-002): 98% | remaining activity at 10 µM (NEK2(h); batch_name=ASAP-0011446-002): 98%

CC(C)[C@@H](Nc1ncnc2[nH]c(-c3cnn(C)c3C#N)cc12)c1ccc2c(n1)OCCO2 [ASAP-0008418]
remaining activity at 10 µM (ALK(h); batch_name=ASAP-0008418-001): 103% | remaining activity at 10 µM (SRPK1(h); batch_name=ASAP-0008418-001): 92% | remaining activity at 10 µM (CHK1(h); batch_name=ASAP-0008418-001): 108% | remaining activity at 10 µM (EphB4(h); batch_name=ASAP-0008418-001): 75% | remaining activity at 10 µM (NEK2(h); batch_name=ASAP-0008418-001): 94%

CC(C)C(Nc1ncnc2[nH]ccc12)c1ccc2c(c1)S(=O)(=O)CCC2 (stereo not shown) [ASAP-0008327]
remaining activity at 10 µM (ALK(h); batch_name=ASAP-0008327-001): 93% | remaining activity at 10 µM (SRPK1(h); batch_name=ASAP-0008327-001): 105% | remaining activity at 10 µM (CHK1(h); batch_name=ASAP-0008327-001): 84% | remaining activity at 10 µM (EphB4(h); batch_name=ASAP-0008327-001): 91% | remaining activity at 10 µM (NEK2(h); batch_name=ASAP-0008327-001): 118%

CC(C)[C@H](Nc1ncnc2[nH]c(-c3cnn(C)c3C#N)cc12)c1ccc2c(n1)OCCO2 [ASAP-0010715]
remaining activity at 10 µM (ALK(h); batch_name=ASAP-0010715-002): 116% | remaining activity at 10 µM (SRPK1(h); batch_name=ASAP-0010715-002): 111% | remaining activity at 10 µM (CHK1(h); batch_name=ASAP-0010715-002): 119% | remaining activity at 10 µM (EphB4(h); batch_name=ASAP-0010715-002): 89% | remaining activity at 10 µM (NEK2(h); batch_name=ASAP-0010715-002): 105%

CC(C)[C@@H](Nc1ncnc2[nH]c(-c3cnn(C)c3C#N)cc12)c1ccc2c(n1)OCCO2 [ASAP-0010716]
remaining activity at 10 µM (ALK(h); batch_name=ASAP-0010716-002): 106% | remaining activity at 10 µM (SRPK1(h); batch_name=ASAP-0010716-002): 104% | remaining activity at 10 µM (CHK1(h); batch_name=ASAP-0010716-002): 120% | remaining activity at 10 µM (EphB4(h); batch_name=ASAP-0010716-002): 91% | remaining activity at 10 µM (NEK2(h); batch_name=ASAP-0010716-002): 76%

CC(C)C(Nc1ncnc2[nH]c(C(=O)NC3CCN(C)C3)cc12)c1ccc2c(c1)S(=O)(=O)CCC2 (stereo not shown) [ASAP-0011198]
remaining activity at 10 µM (ALK(h); batch_name=ASAP-0011198-002): 106% | remaining activity at 10 µM (SRPK1(h); batch_name=ASAP-0011198-002): 108% | remaining activity at 10 µM (CHK1(h); batch_name=ASAP-0011198-002): 118% | remaining activity at 10 µM (EphB4(h); batch_name=ASAP-0011198-002): 86% | remaining activity at 10 µM (NEK2(h); batch_name=ASAP-0011198-002): 118%

COc1ccc([C@H](Cc2nnn[nH]2)NC(=O)c2ncnc3[nH]ccc23)cc1 [ASAP-0015381]
remaining activity at 10 µM (ALK(h); batch_name=ASAP-0015381-001): 106% | remaining activity at 10 µM (SRPK1(h); batch_name=ASAP-0015381-001): 103% | remaining activity at 10 µM (CHK1(h); batch_name=ASAP-0015381-001): 110% | remaining activity at 10 µM (EphB4(h); batch_name=ASAP-0015381-001): 106% | remaining activity at 10 µM (NEK2(h); batch_name=ASAP-0015381-001): 106%

COc1ccc([C@@H](Cc2nnn[nH]2)NC(=O)c2ncnc3[nH]ccc23)cc1 [ASAP-0008340]
remaining activity at 10 µM (ALK(h); batch_name=ASAP-0008340-001): 95% | remaining activity at 10 µM (SRPK1(h); batch_name=ASAP-0008340-001): 102% | remaining activity at 10 µM (CHK1(h); batch_name=ASAP-0008340-001): 95% | remaining activity at 10 µM (EphB4(h); batch_name=ASAP-0008340-001): 88% | remaining activity at 10 µM (NEK2(h); batch_name=ASAP-0008340-001): 100%

CNCc1cc(-c2cc3c(N[C@@H](c4ccc5c(c4)S(=O)(=O)CCC5)C(C)C)ncnc3[nH]2)co1 [ASAP-0011176]
remaining activity at 10 µM (ALK(h); batch_name=ASAP-0011176-002): 99% | remaining activity at 10 µM (SRPK1(h); batch_name=ASAP-0011176-002): 101% | remaining activity at 10 µM (CHK1(h); batch_name=ASAP-0011176-002): 111% | remaining activity at 10 µM (EphB4(h); batch_name=ASAP-0011176-002): 92% | remaining activity at 10 µM (NEK2(h); batch_name=ASAP-0011176-002): 105%

Cn1ncc(-c2cc3c(N[C@@H](c4ccc5c(n4)OCCO5)C(C)(C)C)ncnc3[nH]2)c1C#N [ASAP-0011221]
remaining activity at 10 µM (ALK(h); batch_name=ASAP-0011221-002): 117% | remaining activity at 10 µM (SRPK1(h); batch_name=ASAP-0011221-002): 117% | remaining activity at 10 µM (CHK1(h); batch_name=ASAP-0011221-002): 125% | remaining activity at 10 µM (EphB4(h); batch_name=ASAP-0011221-002): 115% | remaining activity at 10 µM (NEK2(h); batch_name=ASAP-0011221-002): 104%
